Experimental data published in publication PMC11650737, “Developing MYC Degraders Bearing the Von Hippel–Lindau Ligand to Target the “Undruggable” MYC” (ACS Pharmacology & Translational Science, 2024).
Several values for one entry are separate records, joined by “and”; a condition that tells them apart may be missing. Equal values may be shown once. Entries after “also recorded” stand apart in the source; their conditions may differ. Read-outs that look alike come from different tables or passages of the source.

How the values were obtained:
[1] = tested on: A549 cells; assay: Cell viability (MTT) assay, A549; format: cell-based, human; conditions: 72 h
Method: (§1) The antiproliferative activity of the synthesized compounds was tested in cell viability assays optimally set up for various cancer cell lines (results are depicted in Table 2, n = 3, average IC50 (μM) ± SD).
Cells were plated at a density of 5 × 10^3 cells per well on 96-well plates. After 24 h of incubation (37 °C, 5% CO2), the cell medium was removed, and compounds were added at selected concentrations (0.1–100 μM), followed by incubation for 72 h. Control cells were treated with 0.4% DMSO medium to match the conditions in the wells where drugs were added. After 72 h, the medium was removed, and the 3-(4,5-dimethylthiazol-2-yl)-2,5-diphenyltetrazolium bromide (MTT) solution (0.3 mg/mL in PBS) was added to cells for 3 h under no light conditions. The MTT solution was removed, and the formazan crystals were dissolved in 100 μL of DMSO. The optical density was measured at 570 nm with a reference wavelength of 690 nm using an absorbance microplate reader (SpectraMax 190, Molecular Devices, Sunnyvale, CA, USA). The half-maximal inhibitory concentration (IC50) was calculated based on a four-parameter logistic equation, generating a cell viability curve, using GraphPad Prism 6.01 (GraphPad Software, Inc.). […] The resulting absorbance values were used instead of IC50 calculation. […]

[2] = tested on: PC3 cells; assay: Cell viability (MTT) assay, PC3; format: cell-based, human; conditions: for IC50: read-out: IC50 (antiproliferative effect)
Method: as §1
(§2) Cells were plated at a density of 5 × 10^3 cells per well on 96-well plates. After 24 h of incubation (37 °C, 5% CO2), the cell medium was removed, and compounds were added at selected concentrations (0.1–100 μM), followed by incubation for 72 h. Control cells were treated with 0.4% DMSO medium to match the conditions in the wells where drugs were added. After 72 h, the medium was removed, and the 3-(4,5-dimethylthiazol-2-yl)-2,5-diphenyltetrazolium bromide (MTT) solution (0.3 mg/mL in PBS) was added to cells for 3 h under no light conditions. The MTT solution was removed, and the formazan crystals were dissolved in 100 μL of DMSO. The optical density was measured at 570 nm with a reference wavelength of 690 nm using an absorbance microplate reader (SpectraMax 190, Molecular Devices, Sunnyvale, CA, USA). The half-maximal inhibitory concentration (IC50) was calculated based on a four-parameter logistic equation, generating a cell viability curve, using GraphPad Prism 6.01 (GraphPad Software, Inc.). Two concentrations of an established drug, Docetaxel (100 nM and 1 nM), were used in each experiment as a positive control. The resulting absorbance values were used instead of IC50 calculation. Each point was the result of three independent experiments performed in triplicate.

[3] = tested on: SKBR3 cells; assay: Cell uptake / intracellular concentration by LC-MS/MS, SKBR3; format: in vitro ADME, human; conditions: SKBR3, 24 h incubation with 10 μM
Method: (§3) Therefore, in order to better comprehend the observed activities of our degraders, following incubation of each compound with cells, the intracellular concentrations of the synthesized derivatives were evaluated in different cancer cell lines, as described previously.[28],[29] SKBR3, PC3, or A549 cells were incubated with PROTACs (at a 10 μΜ concentration) for selected time points, respectively. Upon sample treatment, compounds were extracted and analyzed by LC-MS/MS. Table 1 presents the percentage of the molecule that enters the cells after 24 h incubation at the 10 μM concentration. […] The small molecule MYCi361, used as a binding domain component of MYC, was also evaluated in the cell uptake assay (Table 1).
(§4) Cells were plated in 24-well plates at a density of 2 × 10^5 cells/well. 24 h after seeding, cells were incubated with each PROTAC (10 μΜ) for certain time points (1 h, 4 h, 8 h, and 24 h). The incubations were terminated at the selected time points by removing the medium and washing the cells twice with 1 mL cold PBS (1×) in each well in order to remove unbound PROTAC. Subsequently, the cells were lysed by adding a cold solution of ACN:H2O (3:2) and scraping off the cell monolayer. This process was done in two steps: first, 200 μL of ACN:H2O was added, the cells were scraped, and the cell lysate was collected. The second step involved the addition of an extra 100 μL of ACN:H2O, scraping, and collection of the remaining lysate. Samples were subsequently vortexed, sonicated, and centrifuged for 10 min at 13 000 rpm. The supernatants were collected, evaporated for 1 h at 55 °C, and stored at −20 °C until the day of analysis. Samples were then reconstituted in 200 μL of initial mobile phase (100% A), and the intracellular accumulation of PROTACs was determined by LC-MS/MS analysis using Warfarin as a stable internal standard and PROTAC standards for the construction of analytical standard curves.
(§5) The percentage of cell uptake was calculated as follows: [drawing 1]

[4] = biological target: T1, c-MYC (Homo sapiens, UniProt P01106); assay: MYC degradation in PC3 cells, Western blot; format: cell-based; conditions: for MYC degradation (MYC levels by Western blot): 10 μΜ, 24 h
T1 construct: endogenous in cells; host or cells: PC3
T1 sequence (P01106 whole entry): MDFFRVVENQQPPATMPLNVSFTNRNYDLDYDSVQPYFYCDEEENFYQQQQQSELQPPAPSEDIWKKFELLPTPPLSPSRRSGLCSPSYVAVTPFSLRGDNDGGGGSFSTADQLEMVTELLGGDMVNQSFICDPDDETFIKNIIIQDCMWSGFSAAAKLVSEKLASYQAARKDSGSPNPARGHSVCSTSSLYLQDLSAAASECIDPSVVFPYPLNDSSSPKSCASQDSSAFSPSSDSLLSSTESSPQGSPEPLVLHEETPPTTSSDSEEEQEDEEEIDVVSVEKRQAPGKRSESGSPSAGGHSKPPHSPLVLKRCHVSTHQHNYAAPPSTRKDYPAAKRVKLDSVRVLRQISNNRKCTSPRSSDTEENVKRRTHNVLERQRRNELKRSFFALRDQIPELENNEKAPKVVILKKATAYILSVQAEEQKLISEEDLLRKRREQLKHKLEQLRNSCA
Method: The ability of novel compounds to induce MYC degradation in the PC3 cell line was evaluated via a Western blot-based assay. […] A PROTAC that effectively degrades bromodomain and extra-terminal (BET) family proteins, with indirect action on MYC levels, BETd-260, was also included in these experiments as a positive control. BETd-260 was tested at a lower concentration (1 μΜ) due to its high potency.[26]
PC3 cells were used for the determination of MYC levels after treatment with the PROTACs under study. Cells (at a density of 250 000 per well) were seeded in 6-well plates for 24 h until 60% confluence. During the 24-h incubation period, cells were treated with the tested compounds (10 μΜ) and BETd-260 (1 μΜ) that was used as a positive control. For rescue experiments, cells were pretreated with the inhibitor MG-132 for 2 h, and then, the medium was removed, followed by the addition of the selected compound. After the 24-h incubation period, a cell lysis protocol was performed. The medium was removed, and the cells were rinsed with cold PBS. Lysis was induced using RIPA lysis buffer (50 mM Tris-HCl at pH 7.5, 150 mM NaCl, 5 mM Na2EDTA, 1 mM EGTA, 0.1% SDS, 1% NP-40, 0.5% sodium deoxycholate, 8 mM sodium fluoride, and 1 mM sodium orthovanadate) and protease inhibitor cocktail (Roche, UK). Total protein concentration in lysate samples was determined via performance of the Bradford assay in bovine serum albumin (BSA). Standard and unknown samples were preformulated in Coomassie blue G-250 assay reagent (Thermo Fisher Scientific, MA, USA), followed by a readout at 595 nm. Separation of the protein isolated from PC3 lysates, respectively (10 μg), with NuPAGE sample reducing agent and NuPAGE LDS sample buffer (Invitrogen, UK), was achieved via SDS-PAGE electrophoresis at 110 V for 2 h, prior to overnight transfer to the polyvinylidene difluoride (PVDF) membrane. The membranes were then blocked in 5% nonfat dry milk in Tris-buffered saline with 0.1% Tween-20 (TBST-T) for 1 h at room temperature.
Detection of MYC in PC3 cells was accomplished via immunoblot of the POI with the indicated monoclonal antibody (Cell Signaling Technology, MA, USA, catalog number #5605) at 1:1000 in TBST at […] overnight. The secondary anti-rabbit peroxidase-conjugate antibody (Cell Signaling Technology, MA, USA, catalog number #7074) was further added at 1:2000 dilution, followed by 1-h incubation at room temperature. Chemiluminescent visualization of the MYC protein bands was performed after the addition of Immobilon Crescendo Western HRP substrate (Sigma-Aldrich, Munich, Germany). For normalization of MYC concentration, GAPDH was labeled using the specific rabbit monoclonal antibody (Cell Signaling Technology, MA, USA, catalog number #5174) at 1:20000 in 5% nonfat dry milk. Protein bands were quantified with the ImageJ software.

[5] = tested on: MYC:MAX complex; assay: In vitro MYC-MAX binding assay (GST pull-down); format: biochemical; conditions: compound 150 μM
Method: To assess whether the new degraders affect direct interaction of MYC with MAX, we employed a pull-down approach using recombinant proteins that correspond to the bHLHZ regions of MYC and MAX. GST-MYC, bound to glutathione sepharose beads, was incubated with the pyrazole compounds, followed by incubation with His-MAX. Finally, the complex of GST-MYC/HisMAX was eluted by the addition of excess glutathione, while the amount of the eluted complex was assessed by western blotting using anti-MAX antibodies (Figure 5).
Figure 5 Inhibition of the formation of the MYC:MAX complex by the pyrazole compounds. The indicated compounds (150 μM), or the solvent alone (DMSO, used as a control), were incubated with GST-MYC containing glutathione beads for 10 min at […], followed by incubation with His-MAX. […] The complex of GST-MYC:His-MAX was eluted by incubation of the beads with free glutathione. The amount of the eluted complex was analyzed by western blotting (presented in the inset), using anti-MAX antibodies, while the protein bands were quantified with the ImageJ software. The intensity of the bands is presented in the bar graph. […] Statistics were based on the unpaired two-tailed student’s t-test. Data are shown as mean ± SEM.
MYC–MAX complex formation assays were performed using recombinantly produced GST-MYC and His-MAX proteins, following the glutathione GST pull-down principle (Lentzaris et al., in preparation). In this assay, recombinant GST-MYC bound to glutathione beads was preincubated with the indicated compound or vehicle […]. As a negative control, empty beads, i.e., not loaded with GST-MYC, were used. The formed complex was eluted with glutathione, while the amount of bound MAX (indicating the amount of the generated complex) was assessed by Western blotting using anti-MAX antibodies (Abcam) and quantified based on the image J free software. All assays were carried out at least three independent times.

[6] = tested on: SKBR3 cells; assay: Cell viability (MTT) assay, SKBR3; format: cell-based, human
Method: as §1, §2

[7] = tested on: HCT116 cells; design: method as in PMID 34838332; conditions: HCT116 cells ref 13; read-out: GI50 (viability); cited from earlier work
[8] = tested on: PSN1 cells; design: method as in PMID 34838332; conditions: PSN1 cells ref 13; read-out: GI50 (viability); cited from earlier work
[9] = tested on: PC3 cells; assay: Cell uptake / intracellular concentration by LC-MS/MS, PC3; format: in vitro ADME, human; conditions: PC3, 24 h incubation with 10 μM
Method: as §3, §4, §5

In the case of `Cc1ncsc1-c1ccc(CNC(=O)[C@@H]2C[C@@H](O)CN2C(=O)[C@@H](NC(=O)CNC(=O)CCC(=O)NCCCOc2ccc(-c3cc(C(F)(F)F)nn3C)c(O)c2-c2cc(C(F)(F)F)cc(C(F)(F)F)c2)C(C)(C)C)cc1` [CSI95], the “IC50 (antiproliferative effect)” value [1] is reported as “inactive”, the “IC50 (antiproliferative effect)” value ([2]; 72 h) is reported as “inactive” and the Uptake by cells [3] is reported as 16 ± 5%. For the same compound, the “MYC degradation (MYC levels by Western blot)” value [4] was “No particular effect”.

For `Cn1nc(C(F)(F)F)cc1-c1ccc(OCCCN)c(-c2cc(C(F)(F)F)cc(C(F)(F)F)c2)c1O.O=C(O)C(F)(F)F` [CSI118], the “inhibition of MYC:MAX complex formation (binding of His-MAX to GST-MYC)” value [5] was “did not seem to interfere significantly; also recorded: no effect on MYC/MAX dimerization”.

With `Cc1ncsc1-c1ccc(CNC(=O)[C@@H]2C[C@H](O)CN2C(=O)[C@@H](NC(=O)CCCC(=O)NCCCOc2ccc(-c3cc(C(F)(F)F)nn3C)c(O)c2-c2cc(C(F)(F)F)cc(C(F)(F)F)c2)C(C)(C)C)cc1` [CSI212] the “IC50 (antiproliferative effect)” value ([2]; 72 h) was “did not have any antiproliferative effect; also recorded: inactive”, the “IC50 (antiproliferative effect)” value ([6]; 72 h) was “did not have any antiproliferative effect; also recorded: inactive” and the “MYC degradation (MYC levels by Western blot)” value [4] was “inactive”.

With `CCc1ccc(/C=C2/SC(=S)NC2=O)cc1` [Compound 10058-F4, reference compound] the IC50 ([2]; 72 h) was 23 µM and 25 µM.

For `CC(C)c1ccc(/C=C2\SC(=O)N(CCCCCCCCNC(=O)c3ccc4c(c3)C(=O)N(C3CCC(=O)NC3=O)C4=O)C2=O)cc1` (stereo not shown) [MDEG-541], the GI50 [7] is listed as 14.3 µM and the GI50 [8] is listed as 10.7 µM.

In the case of `Cn1nc(C(F)(F)F)cc1-c1ccc(OCc2ccc(Cl)cc2)c(-c2cc(C(F)(F)F)cc(C(F)(F)F)c2)c1O` [MYCi361, reference compound], the IC50 ([2]; Homo sapiens, PC-3, 72 h) is reported as 8 ± 1 µM, the Uptake by cells [3] is reported as 19% and 19 ± 1% and the Uptake by cells [9] is reported as 28% and 28 ± 5%. The IC50 ([6]; Homo sapiens, SK-BR-3, 72 h, read-out: IC50 (antiproliferative effect)) was 11 ± 4 µM and the “concentration range in which MYC was degraded” value [4] was 5–10 μΜ.
